The target in experiment [1] is T1, AKAP1 A-kinase anchor protein 1, mitochondrial (Homo sapiens, UniProt Q92667).
T1 construct: Cells were resuspended in cold PBS on ice and sonicated with a probe sonicator to achieve lysis; endogenous in cells
T1 sequence (Q92667 30-903): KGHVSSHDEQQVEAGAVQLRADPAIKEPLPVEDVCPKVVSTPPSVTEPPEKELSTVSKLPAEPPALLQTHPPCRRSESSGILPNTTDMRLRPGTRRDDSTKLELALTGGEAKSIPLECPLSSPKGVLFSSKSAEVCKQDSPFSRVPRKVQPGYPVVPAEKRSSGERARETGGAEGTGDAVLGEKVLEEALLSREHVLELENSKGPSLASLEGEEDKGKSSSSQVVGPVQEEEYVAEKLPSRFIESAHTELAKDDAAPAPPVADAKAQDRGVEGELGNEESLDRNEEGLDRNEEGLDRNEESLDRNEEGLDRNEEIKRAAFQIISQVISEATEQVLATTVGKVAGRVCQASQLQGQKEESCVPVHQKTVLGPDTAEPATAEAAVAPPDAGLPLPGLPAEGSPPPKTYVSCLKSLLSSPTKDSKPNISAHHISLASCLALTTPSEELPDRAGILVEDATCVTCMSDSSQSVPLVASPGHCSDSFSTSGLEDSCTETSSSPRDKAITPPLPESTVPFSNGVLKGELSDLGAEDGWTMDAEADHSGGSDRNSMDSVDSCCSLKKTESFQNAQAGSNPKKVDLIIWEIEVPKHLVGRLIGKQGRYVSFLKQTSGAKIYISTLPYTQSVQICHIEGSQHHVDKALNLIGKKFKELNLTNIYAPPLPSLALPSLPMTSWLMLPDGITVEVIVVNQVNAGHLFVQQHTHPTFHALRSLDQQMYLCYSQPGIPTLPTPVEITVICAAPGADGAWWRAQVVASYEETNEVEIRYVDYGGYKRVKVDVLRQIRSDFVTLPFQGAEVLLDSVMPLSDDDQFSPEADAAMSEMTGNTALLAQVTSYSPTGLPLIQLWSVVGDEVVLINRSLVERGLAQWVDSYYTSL
The experiment in a line: Cysteine liganding, probe competition. The experiment is classed as binding. In short, it runs like this:
(§1)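 Probe competition in native proteome: 5 mg/ml lysate, compound 1 hr 25° C, then desthiobiotin iodoacetamide (10 mM stock) 1 hr 25° C; acetone ppt, urea/DTT reduction, iodoacetamide alkylation, trypsin, streptavidin pull-down.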

The target of experiment [2] is T2, IDH2 Isocitrate dehydrogenase (Homo sapiens, UniProt P48735).
T2 construct: Cells were resuspended in cold PBS on ice and sonicated with a probe sonicator to achieve lysis; endogenous in cells
T2 sequence (P48735 40-452): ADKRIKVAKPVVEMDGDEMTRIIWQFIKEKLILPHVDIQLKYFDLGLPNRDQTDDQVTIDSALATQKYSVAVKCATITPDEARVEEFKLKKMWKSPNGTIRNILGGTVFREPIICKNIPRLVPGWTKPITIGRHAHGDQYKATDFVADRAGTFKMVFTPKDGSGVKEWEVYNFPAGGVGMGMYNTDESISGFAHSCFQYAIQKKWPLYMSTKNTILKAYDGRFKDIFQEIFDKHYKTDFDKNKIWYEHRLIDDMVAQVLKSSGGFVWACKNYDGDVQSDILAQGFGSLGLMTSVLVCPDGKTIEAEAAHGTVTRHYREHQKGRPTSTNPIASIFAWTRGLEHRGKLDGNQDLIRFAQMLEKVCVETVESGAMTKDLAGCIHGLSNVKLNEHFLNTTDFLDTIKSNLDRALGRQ
The experiment in a line: Cysteine liganding, probe competition. The experiment is classed as binding. In short, it runs like this: as §1

SMILES strings stand for the structures.

For the molecule `COc1ccc2c(c1)CCCN2C(=O)CCl` [KB02], the Liganded entry in experiment [1] (AKAP1 Res# 376, uniprot Q92667) is on record as “YES”; in experiment [2] (IDH2 Res# 154, uniprot P48735), “YES”.
With `O=C(CCl)Nc1cc(C(F)(F)F)cc(C(F)(F)F)c1` [KBO3], in experiment [1] (uniprot Q92667), the 100 ave is given as −0.33, the “500 Max” value was found to be 57.81 and the 500 ave is given as 45.04. In addition, the “100 Max” value in experiment [1] (uniprot Q92667, in % (unit assumed)) came to 18.92. Besides, in experiment [2] (uniprot P48735), the “100 Max” value is recorded as 63.35, the 100 ave was 43.06, the “500 Max” value was 73.43 and the 500 ave was found to be 70.11.

Values taken from patent publication US20200239530A1, “COMPOUNDS AND METHODS OF MODULATING PROTEIN DEGRADATION” (Vividion Therapeutics, Inc., priority 2017, published 2020).
